Laboratory results published in paper PMC6775132, “Systematic identification of metabolites controlling gene expression in E. coli” (Nature Communications, 2019).

Assays:
Test in all cases: microscale thermophoresis, labelled His-tagged protein
Assay type in all cases: binding
Conditions in all cases: 50 mM NaH2PO4, 500 mM NaCl, pH 5.7, 21 °C; 50 nM protein
ArgR = biological target: T1, ArgR (Escherichia coli, UniProt P0A6D0)
T1 construct: labelled through His-tag (RED-tris-NTA)
T1 sequence (P0A6D0 1-156): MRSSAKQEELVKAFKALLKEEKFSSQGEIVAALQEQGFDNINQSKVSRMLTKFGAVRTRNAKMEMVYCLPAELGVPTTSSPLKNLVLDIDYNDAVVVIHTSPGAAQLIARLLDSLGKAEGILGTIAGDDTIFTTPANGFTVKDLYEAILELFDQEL

DhaR = biological target: T2, DhaR (Escherichia coli, UniProt P76016)
T2 construct: labelled through His-tag (RED-tris-NTA)
T2 sequence (P76016 1-639): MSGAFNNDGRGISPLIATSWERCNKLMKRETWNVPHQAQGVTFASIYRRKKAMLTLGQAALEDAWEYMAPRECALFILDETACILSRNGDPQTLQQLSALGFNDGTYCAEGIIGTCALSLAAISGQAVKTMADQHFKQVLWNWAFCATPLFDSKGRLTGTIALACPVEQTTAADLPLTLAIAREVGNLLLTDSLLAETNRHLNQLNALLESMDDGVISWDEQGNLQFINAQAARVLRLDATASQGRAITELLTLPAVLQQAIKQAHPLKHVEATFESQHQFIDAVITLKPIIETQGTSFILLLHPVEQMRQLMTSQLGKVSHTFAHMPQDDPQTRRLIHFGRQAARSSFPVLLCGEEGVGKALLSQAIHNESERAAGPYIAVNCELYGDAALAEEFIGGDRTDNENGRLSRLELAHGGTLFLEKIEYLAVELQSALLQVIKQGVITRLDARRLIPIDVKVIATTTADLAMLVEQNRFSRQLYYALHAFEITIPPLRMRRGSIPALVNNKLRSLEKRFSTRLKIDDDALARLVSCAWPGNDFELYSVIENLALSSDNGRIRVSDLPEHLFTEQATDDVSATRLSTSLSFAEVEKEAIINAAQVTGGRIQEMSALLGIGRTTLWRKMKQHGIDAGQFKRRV

SgrR = biological target: T3, SgrR (Escherichia coli, UniProt P33595)
T3 construct: labelled through His-tag (RED-tris-NTA)
T3 sequence (P33595 1-551): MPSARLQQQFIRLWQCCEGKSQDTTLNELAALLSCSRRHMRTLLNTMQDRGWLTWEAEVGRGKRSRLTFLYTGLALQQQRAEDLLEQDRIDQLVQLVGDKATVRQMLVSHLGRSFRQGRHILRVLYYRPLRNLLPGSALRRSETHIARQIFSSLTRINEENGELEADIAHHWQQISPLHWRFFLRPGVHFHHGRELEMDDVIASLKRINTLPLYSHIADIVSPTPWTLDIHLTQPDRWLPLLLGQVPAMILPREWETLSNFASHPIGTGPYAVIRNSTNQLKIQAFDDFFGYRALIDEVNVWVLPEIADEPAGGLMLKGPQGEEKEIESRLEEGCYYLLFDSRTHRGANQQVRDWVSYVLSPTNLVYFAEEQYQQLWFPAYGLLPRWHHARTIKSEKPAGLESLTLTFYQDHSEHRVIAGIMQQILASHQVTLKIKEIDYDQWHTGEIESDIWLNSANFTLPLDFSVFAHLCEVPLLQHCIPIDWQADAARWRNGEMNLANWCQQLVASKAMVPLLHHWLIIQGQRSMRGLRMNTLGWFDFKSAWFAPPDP

TrpR = biological target: T4, TrpR (Escherichia coli, UniProt P0A881)
T4 construct: labelled through His-tag (RED-tris-NTA)

SoxR = biological target: T5, SoxR (Escherichia coli, UniProt P0ACS2)
T5 construct: labelled through His-tag (RED-tris-NTA)
T5 sequence (P0ACS2 1-154): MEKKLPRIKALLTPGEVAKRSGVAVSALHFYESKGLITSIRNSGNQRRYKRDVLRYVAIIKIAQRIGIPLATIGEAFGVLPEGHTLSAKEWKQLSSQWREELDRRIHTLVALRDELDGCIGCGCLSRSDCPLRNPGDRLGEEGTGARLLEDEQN

## N=C(N)NCCC[C@H](N)C(=O)O [arg, arginine]
ArgR
  KD: also confirmed the known arginine–ArgR and tryptophan–TrpR interactions

## O=C(CO)COP(=O)(O)O [dhap, dihydroxyacetone phosphate]
DhaR
  KD: DhaR binds the glycolysis intermediate dihydroxyacetone phosphate (DHAP)

## N[C@@H](CCC(=O)O)C(=O)O [glu, glutamate]
SgrR
  KD: SgrR binds glutamate

## N[C@@H](Cc1c[nH]c2ccccc12)C(=O)O [trp, tryptophan]
TrpR
  KD: also confirmed the known arginine–ArgR and tryptophan–TrpR interactions
SoxR
  KD: In vitro MST assays validated that SoxR binds tryptophan
